Values of other authors as cited in patent US4939134A, “26-aminocholesterol and derivatives and analogs thereof in the regulation of cholesterol accumulation in body tissue” (New York University, priority 1988, dated 1990).

Columns and labels:
LDL receptors = settings: fibroblasts and other non-hepatic cells, cell culture studies; cited from earlier work
[1] = tested on: hepatic cholesterol synthesis; settings: cited from earlier work
HMG CoA reductase = settings: cited from earlier work

In the case of `CC[C@H](C)C(=O)O[C@H]1C[C@@H](C)C=C2C=C[C@H](C)[C@H](CC[C@@H]3C[C@@H](O)CC(=O)O3)[C@H]21` [mevinolin], the LDL receptors (LDL receptors) is listed as “upregulates LDL receptors”, the hepatic cholesterol synthesis [1] is listed as “inhibit hepatic cholesterol synthesis” and the “amount of HMG CoA reductase” value (HMG CoA reductase) is listed as “increases the amount of HMG CoA reductase”.
